Experimental data as given in patent publication US12384765B2, “Catecholamine prodrugs for use in the treatment of Parkinson's Disease” (H. Lundbeck A/S, priority 2019, dated 2025).

Columns and labels:
human 5-HT2B receptor = human 5-HT2B receptor (Homo sapiens (Human), UniProt P41595); experiment: 5-HT2B agonist activity assay (IP1 production, HTRF); format: cell-based; details: for activity at 10 µM: read-out: 5-HT2B agonist activity, percent of control response
Method: Evaluation of the agonist activity of compounds (I), (Ia), (Ib), (Ic), (Ia-iab), compound (2), compound (9), compound (15), compound (27), A2, A3, and A7 at the human 5-HT2B receptor was performed by Eurofins/Cerep (France) measuring the compound effects on inositol monophosphate (IP1) production using the HTRF detection method. Briefly, the human 5-HT2B receptor was expressed in transfected CHO cells. The cells were suspended in a buffer containing 10 mM Hepes/NaOH (pH 7.4), 4.2 mM KCl, 146 mM NaCl, 1 mM CaCl2, 0.5 mM MgCl2, 5.5 mM glucose and 50 mM LiCl, then distributed in microplates at a density of 4100 cells/well and incubated for 30 minutes at 37° C. in the presence of buffer (basal control), test compound or reference agonist. For stimulated control measurement, separate assay wells contained 1 μM 5-HT. Following incubation, the cells were lysed and the fluorescence acceptor (fluorophen D2-labeled IP1) and fluorescence donor (anti-IP1 antibody labeled with europium cryptate) were added. After 60 minutes at room temperature, the fluorescence transfer was measured at lambda(Ex) 337 nm and lambda(Em) 620 and 665 nm using a microplate reader (Rubystar, BMG). The IP1 concentration was determined by dividing the signal measured at 665 nm by that measured at 620 nm (ratio). The results were expressed as a percent of the control response to 1 μM 5-HT. The standard reference agonist was 5-HT, which was tested in each experiment at several concentrations to generate a concentration-response curve from which its EC50 value is calculated as described above for dopamine functional assays.

[1] = PK experiments in rats, plasma compound (I) after oral dosing; format: in vivo, Han Wistar rats; details: for Observed metabolite, In vivo PK study after oral dosing (rats) / conversion to compound (I) in vivo: oral dosing, rats
Method: Plasma was placed on water-ice following collection. Final storage at approximately −70° C.
Mobile phase B: Acetonitrile. […] Flow rate 0.5 mL/min.
The rats had unrestricted access to the diet.
Mobile phase B: Acetonitrile+0.2% formic acid. […] Flow rate 0.3 mL/min.
The rats received a standard laboratory diet Teklad 2014C. The rats had unrestricted access to the diet.

[2] = Conversion of compounds in human plasma; format: in vitro ADME; details: for Observed metabolite, Incubation in human plasma: 1 μM test compound, 37° C., 0-6 hr, nd: not detected; for appearance of compound (I) / conversion in vitro: incubation in human plasma and/or human hepatocytes
Method: Frozen human plasma was thawed and then centrifuged at 3200×g for 5 min to remove debris. The pH value of the supernatant was then measured and adjusted to 7.4±0.1 by adding 1% phosphoric acid or 1 N sodium hydroxide. 2 μL of dosing solution (50 μM for test compounds and 100 μM for positive control (propantheline bromide)) was mixed with 98 μL of blank plasma to achieve 1 μM test compound and 2 μM positive control of final concentration. The mixture was incubated, and samples were withdrawn from the incubations at the pre-determined time points of 0, 0.5, 1, 2, 4 and 6 hr (in duplicate) at 37° C. in water bath. At each corresponding time point 10 μL inhibitor and 20 μL ascorbic acid and 2 μL formic acid (20%) are added, and then added 400 μL of “stop solution” (200 ng/mL tolbutamide plus 200 ng/mL labetalol in 50% ACN/MeOH) to precipitate protein. The substance was mixed thoroughly and thereafter Centrifugated at 4,000 rpm for 20 minutes. Then an aliquot of supernatant (50 μL) was transferred from each well to a sample plate and mixed with 100 μL ultrapure water. The plate was shaked at 800 rpm for about 10 minutes before submitting to LC-MS/MS analysis.
Mass spectrometer (LC-MS/MS) Shimadzu LC 20-AD Shimadzu UHPLC API 4000. Analytical column ACQUITY UPLC® BEH Phenyl 1.7 μm 2.1×50 mm. Mobile phase A: 0.1% Formic Acid in Water. Mobile phase B: 0.1% Formic Acid in Acetonitrile. […] Flow rate 0.7 mL/min.

Sequence of human 5-HT2B receptor (P41595 whole entry): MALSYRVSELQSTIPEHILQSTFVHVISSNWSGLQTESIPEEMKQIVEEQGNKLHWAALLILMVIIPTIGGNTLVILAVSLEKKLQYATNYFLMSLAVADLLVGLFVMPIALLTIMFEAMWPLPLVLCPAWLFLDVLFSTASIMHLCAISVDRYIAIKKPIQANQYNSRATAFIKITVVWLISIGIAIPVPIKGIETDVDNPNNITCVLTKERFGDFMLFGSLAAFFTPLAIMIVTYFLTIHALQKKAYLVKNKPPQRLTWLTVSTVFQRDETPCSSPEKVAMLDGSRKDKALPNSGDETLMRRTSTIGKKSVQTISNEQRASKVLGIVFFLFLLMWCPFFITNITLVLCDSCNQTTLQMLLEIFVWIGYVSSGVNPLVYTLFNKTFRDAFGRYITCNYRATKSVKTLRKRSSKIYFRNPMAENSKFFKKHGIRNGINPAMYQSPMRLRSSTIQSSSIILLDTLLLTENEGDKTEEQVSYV

SMILES | activity at 10 µM (human 5-HT2B receptor) | Observed metabolite, Incubation in human plasma [2] | appearance of compound (I) / conversion in vitro [2] | further results
CCCN1CCC[C@@H]2Cc3c(ccc(OC(=O)C(C)(C)C)c3OC(=O)C(C)(C)C)C[C@H]21 [(Ic), reference compound] | -5% |  |  | plasma concentrations of compound (I) after oral dosing (in words) ([1]; oral dosing to Wistar rats): extremely low
CCCN1CCC[C@@H]2Cc3c(ccc(O)c3O[C@@H]3O[C@H](C(=O)OC)[C@@H](OC(C)=O)[C@H](OC(C)=O)[C@H]3OC(C)=O)C[C@H]21 [Compound (2), (2S,3R,4S,5S,6S)-2-(((4aR,10aR)-7-hydroxy-1-propyl-1,2,3,4,4a,5,10,10a-octahydrobenzo[g]quinolin-6-yl)oxy)-6-(methoxycarbonyl)tetrahydro-2H-pyran-3,4,5-triyl triacetate] | 10% | Compound (Id-ia) | no appearance of compound (I) | Observed metabolite, In vivo PK study after oral dosing (rats) [1]: Compound (I); conversion to compound (I) in vivo [1]: showed conversion in vivo
CCCN1CCC[C@@H]2Cc3c(ccc(O)c3O[C@@H]3OC(C(=O)OC)=C[C@H](OC(C)=O)[C@H]3OC(C)=O)C[C@H]21 [Compound (3), (2R,3R,4S)-2-(((4aR,10aR)-7-hydroxy-1-propyl-1,2,3,4,4a,5,10,10a-octahydrobenzo[g]quinolin-6-yl)oxy)-6-(methoxycarbonyl)-3,4-dihydro-2H-pyran-3,4-diyl diacetate] |  | Compound (9) |  | 
CCCN1CCC[C@@H]2Cc3c(ccc(OCc4ccccc4)c3O[C@@H]3O[C@H](C(=O)O)[C@@H](O)[C@H](O)[C@H]3O)C[C@H]21 [Compound (4), (2S,3S,4S,5R,6S)-6-(((4aR,10aR)-7-(benzyloxy)-1-propyl-1,2,3,4,4a,5,10,10a-octahydrobenzo[g]quinolin-6-yl)oxy)-3,4,5-trihydroxytetrahydro-2H-pyran-2-carboxylic acid] |  | Compound A2 |  | 
CCCN1CCC[C@@H]2Cc3c(ccc(O)c3O[C@@H]3OC(C(=O)O)=C[C@H](O)[C@H]3O)C[C@H]21 [Compound (9), (2R,3R,4S)-3,4-dihydroxy-2-(((4aR,10aR)-7-hydroxy-1-propyl-1,2,3,4,4a,5,10,10a-octahydrobenzo[g]quinolin-6-yl)oxy)-3,4-dihydro-2H-pyran-6-carboxylic acid] | 9% |  | no appearance of compound (I) | conversion to compound (I) in vivo [1]: showed conversion in vivo
CCCN1CCC[C@@H]2Cc3c(ccc(O)c3O[C@@H]3O[C@H](C(=O)OCC)[C@@H](OC(C)=O)[C@H](OC(C)=O)[C@H]3OC(C)=O)C[C@H]21 [Compound (11), (2S,3S,4S,5R,6S)-2-(ethoxycarbonyl)-6-(((4aR,10aR)-7-hydroxy-1-propyl-1,2,3,4,4a,5,10,10a-octahydrobenzo[g]quinolin-6-yl)oxy)tetrahydro-2H-pyran-3,4,5-triyl triacetate] |  |  | converted to compound (Id-ia) | 
CCCN1CCC[C@@H]2Cc3c(ccc(O)c3O[C@@H]3O[C@H](C(=O)OCC)[C@@H](OC(=O)C(C)(C)C)[C@H](OC(=O)C(C)(C)C)[C@H]3OC(=O)C(C)(C)C)C[C@H]21 [Compound (14), (2S,3S,4S,5R,6S)-2-(ethoxycarbonyl)-6-(((4aR,10aR)-7-hydroxy-1-propyl-1,2,3,4,4a,5,10,10a-octahydrobenzo[g]quinolin-6-yl)oxy)tetrahydro-2H-pyran-3,4,5-triyl tris(2,2-dimethylpropanoate)] |  | Compound (6) |  | 
CCCN1CCC[C@@H]2Cc3c(ccc(OC)c3O[C@@H]3O[C@H](C(=O)O)[C@@H](O)[C@H](O)[C@H]3O)C[C@H]21 [Compound (15), (2S,3S,4S,5R,6S)-3,4,5-trihydroxy-6-(((4aR,10aR)-7-methoxy-1-propyl-1,2,3,4,4a,5,10,10a-octahydrobenzo[g]quinolin-6-yl)oxy)tetrahydro-2H-pyran-2-carboxylic acid] | 0% |  | no appearance of compound (I) | conversion to compound (I) in vivo [1]: showed conversion in vivo
CCCN1CCC[C@@H]2Cc3c(ccc(O)c3O[C@@H]3O[C@H](C(=O)OC)[C@@H](OC(=O)C(C)(C)C)[C@H](OC(=O)C(C)(C)C)[C@H]3OC(=O)C(C)(C)C)C[C@H]21 [Compound (26), (2S,3S,4S,5R,6S)-2-(methoxycarbonyl)-6-(((4aR,10aR)-7-hydroxy-1-propyl-1,2,3,4,4a,5,10,10a-octahydrobenzo[g]quinolin-6-yl)oxy)tetrahydro-2H-pyran-3,4,5-triyl tris(2,2-dimethylpropanoate)] |  | Compound (6) |  | 
CCCN1CCC[C@@H]2Cc3c(ccc(O[C@@H]4O[C@H](C(=O)OC)[C@@H](OC(C)=O)[C@H](OC(C)=O)[C@H]4OC(C)=O)c3O)C[C@H]21 [Compound (27), (2S,3R,4S,5S,6S)-2-(((4aR,10aR)-6-hydroxy-1-propyl-1,2,3,4,4a,5,10,10a-octahydrobenzo[g]quinolin-7-yl)oxy)-6-(methoxycarbonyl)tetrahydro-2H-pyran-3,4,5-triyl triacetate] | 2% | Compound (Id-ib) |  | Observed metabolite, In vivo PK study after oral dosing (rats) [1]: Compound (I)
CCCN1CCC[C@@H]2Cc3c(ccc(OCc4ccccc4)c3O)C[C@H]21.I [Compound A2, (4aR,10aR)-7-(Benzyloxy)-1-propyl-1,2,3,4,4a,5,10,10a-octahydrobenzo[g]quinolin-6-ol hydroiodide] | 30% |  |  | Observed metabolite, In vivo PK study after oral dosing (rats) [1]: Compound (I)
CCCN1CCC[C@@H]2Cc3c(ccc(O[C@@H]4O[C@H](C(=O)OC)[C@@H](OC(C)=O)[C@H](OC(C)=O)[C@H]4OC(C)=O)c3OC(C)=O)C[C@H]21 [Compound A3, (2S,3R,4S,5S,6S)-2-(((4aR,10aR)-6-Acetoxy-1-propyl-1,2,3,4,4a,5,10,10a-octahydrobenzo[g]quinolin-7-yl)oxy)-6-(methoxycarbonyl)tetrahydro-2H-pyran-3,4,5-triyl triacetate] |  | compound (27) |  | 5-HT2B agonist activity, percent of control response (human 5-HT2B receptor; @ 10 μM): 3% @ 10 μM
CCCN1CCC[C@@H]2Cc3c(ccc(O[C@@H]4O[C@H](C(=O)OC)[C@@H](OC(C)=O)[C@H](OC(C)=O)[C@H]4OC(C)=O)c3O[C@@H]3O[C@H](C(=O)OC)[C@@H](OC(C)=O)[C@H](OC(C)=O)[C@H]3OC(C)=O)C[C@H]21 [Compound I2, methyl (2S,3S,4S,5R,6S)-6-[[(4aR,10aR)-1-propyl-6-[(2S,3R,4S,5S,6S)-3,4,5-triacetoxy-6-methoxycarbonyl-tetrahydropyran-2-yl]oxy-3,4,4a,5,10,10a-hexahydro-2H-benzo[g]quinolin-7-yl]oxy]-3,4,5-triacetoxy-tetrahydropyran-2-carboxylate] |  |  | no vitro conversion | 
